# Measurements taken from US20260015358A1, “BICYCLIC DERIVATIVES, COMPOSITIONS AND USES THEREOF” (Danatlas Pharmaceuticals Co., Ltd., priority 2023, published 2026).
# Target: WRN [UniPro: Q14191 (WRN_HUMAN), N500-C946] (Homo sapiens (Human), UniProt Q14191)
# Assay: WRN unwinding assay (FORKF DNA, fluorescence)
# Format: biochemical
# Conditions: Table 14
# Experimental: WRN unwinding assay was initiated to evaluate potential inhibitory effect of compounds for WEN helicase activity. WRN [UniPro: Q14191 (WRN_HUMAN), N500-C946] was expressed and purified in insect system and stored at −80° C. in aliquots. […] Compounds dissolved in DMSO (Sigma, D8418) were plated into a 96-well intermediate plate (BioFil, VWP-032-096) for 3-fold serial titration for 10 points using DMSO, and well-to-well transfer the titrated compounds into another 96-well intermediate plate including assay buffer in advance. Shake the 96-well intermediate plate at 600 rpm for 10 min. to fully mix. Specifically, a 3× working mixture of WRN was diluted to a concentration of 60 nM in assay buffer. […] After centrifuging at 1000 rpm and shaking at 500 rpm, the assay plate was pre-incubated for 30 min. Then, […] 3×FORKF DNA and ATP working mixture was dispensed into assay plate. Plate was sealed, centrifuged and incubated for an additional 40 min. at 25° C. […] Each concentration of compound was tested in duplicates in the assay plate. Average fluorescence signal of high control (Wells with 1% DMSO) was calculated as High Control (HC). Average fluorescence signal of low control (Wells with no WRN protein) was calculated as Low control (LC).
# IC50 values were determined by fitting the data to the standard 4 parameters with Hill Slope using GraphPad Prism software.
# Sequence of WRN [UniPro: Q14191 (WRN_HUMAN), N500-C946] (Q14191 500-946): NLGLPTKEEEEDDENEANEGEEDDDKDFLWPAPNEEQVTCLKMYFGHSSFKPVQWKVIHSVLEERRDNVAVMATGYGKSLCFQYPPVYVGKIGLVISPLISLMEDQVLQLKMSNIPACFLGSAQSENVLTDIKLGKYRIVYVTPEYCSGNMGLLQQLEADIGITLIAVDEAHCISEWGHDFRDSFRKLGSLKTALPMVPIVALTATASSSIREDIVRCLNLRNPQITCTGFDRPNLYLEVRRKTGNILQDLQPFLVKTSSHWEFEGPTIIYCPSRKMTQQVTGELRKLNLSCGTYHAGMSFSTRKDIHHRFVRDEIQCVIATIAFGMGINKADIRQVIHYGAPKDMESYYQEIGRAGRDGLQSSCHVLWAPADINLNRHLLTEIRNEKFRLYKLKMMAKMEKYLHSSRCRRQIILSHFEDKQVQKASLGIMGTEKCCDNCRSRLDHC
row,SMILES,IC50 [µM]
1,"CCc1c(N2CCC3(CCN(C(=O)CNC(=O)c4ccccc4)C3)C2)c(=O)n2nc(C3=CCOCC3)nc2n1CC(=O)Nc1ccc(C(F)(F)F)cc1Cl (stereo not shown) [Example 139, N-(2-(7-(4-(2-((2-Chloro-4-(trifluoromethyl)phenyl)amino)-2-oxoethyl)-2-(3,6-dihydro-2H-pyran-4-yl)-5-ethyl-7-oxo-4,7-dihydro-[1,2,4]triazolo[1,5-a]pyrimidin-6-yl)-2,7-diazaspiro[4.4]nonan-2-yl)-2-oxoethyl)benzamide]",> 1
2,"CCc1c(N2CC3CN(C(=O)CNC(=O)c4ccccc4F)CC3C2)c(=O)n2nc(C3=CCOCC3)nc2n1CC(=O)Nc1ccc(C(F)(F)F)cc1Cl (stereo not shown) [Example 140, N-(2-(5-(4-(2-((2-Chloro-4-(trifluoromethyl)phenyl)amino)-2-oxoethyl)-2-(3,6-di hydro-2H-pyran-4-yl)-5-ethyl-7-oxo-4,7-dihydro-[1,2,4]triazolo[1,5-a]pyrimidin-6-yl)hexahydropyrrolo[3,4-c]pyrrol-2(1H)-yl)-2-oxoethyl)-2-fluorobenzamide]",> 1
3,"CCc1c(N2CCN(C(=O)CN(C)C(=O)c3ccccc3)CC2)c(=O)n2nc(C3=CCOCC3)nc2n1CC(=O)Nc1ccc(C(F)(F)F)cc1Cl [Example 135, N-(2-(4-(4-(2-((2-Chloro-4-(trifluoromethyl)phenyl)amino)-2-oxoethyl)-2-(3,6-dihydro-2H-pyran-4-yl)-5-ethyl-7-oxo-4,7-dihydro-[1,2,4]triazolo[1,5-a]pyrimidin-6-yl)piperazin-1-yl)-2-oxoethyl)-N-methylbenzamide]",< 0.1
4,"CCc1c(N2CCN(C(=O)CNC(=O)c3ccccc3F)CC2)c(=O)n2nc(C3=CCOCC3)nc2n1CC(=O)Nc1nnc(C2CC2)s1 [Example 156, N-(2-(4-(4-(2-((5-Cyclopropyl-1,3,4-thiadiazol-2-yl)amino)-2-oxoethyl)-2-(3,6-dihydro-2H-pyran-4-yl)-5-ethyl-7-oxo-4,7-dihydro-[1,2,4]triazolo[1,5-a]pyrimidin-6-yl)piperazin-1-yl)-2-oxoethyl)-2-fluorobenzamide]",> 1
5,"CCc1c(N2CCN(C(=O)CNC(=O)c3ccccc3F)CC2)c(=O)n2nc(C3=CCOCC3)nc2n1CC(=O)Nc1cc(C)no1 [Example 160, N-(2-(4-(2-(3,6-Dihydro-2H-pyran-4-yl)-5-ethyl-4-(2-((3-methylisoxazol-5-yl)amino)-2-oxoethyl)-7-oxo-4,7-dihydro-[1,2,4]triazolo[1,5-a]pyrimidin-6-yl)piperazin-1-yl)-2-oxoethyl)-2-fluorobenzamide]",> 1
6,"O=C(Cn1c(O)c(N2CCN(C(=O)CNC(=O)c3ccccc3)CC2)c(=O)n2nc(C3=CCOCC3)nc12)Nc1ccc(C(F)(F)F)cc1Cl [Example 142, N-(2-(4-(4-(2-((2-Chloro-4-(trifluoromethyl)phenyl)amino)-2-oxoethyl)-2-(3,6-dihydro-2H-pyran-4-yl)-5-hydroxy-7-oxo-4,7-dihydro-[1,2,4]triazolo[1,5-a]pyrimidin-6-yl)piperazin-1-yl)-2-oxoethyl)benzamide]",0.1 to 1
7,"CCc1c(N2CCN(C(=O)CNC(=O)c3ccccc3N3CCOCC3)CC2)c(=O)n2nc(N3CCOCC3)nc2n1CC(=O)Nc1ccc(C(F)(F)F)cc1Cl [Example 247, N-(2-(4-(4-(2-((2-Chloro-4-(trifluoromethyl)phenyl)amino)-2-oxoethyl)-5-ethyl-2-morpholino-7-oxo-4,7-dihydro-[1,2,4]triazolo[1,5-a]pyrimidin-6-yl)piperazin-1-yl)-2-oxoethyl)-2-morpholinobenzamide]",0.1 to 1
8,"CCc1c(N2CCN(C(=O)CNC(=O)c3ccccc3F)CC2)c(=O)n2nc(C3=CCOCC3)nc2n1CC(=O)Nc1nnc(C(F)(F)F)s1 [Example 155, N-(2-(4-(2-(3,6-Dihydro-2H-pyran-4-yl)-5-ethyl-7-oxo-4-(2-oxo-2-((5-(trifluoromethyl)-1,3,4-thiadiazol-2-yl)amino)ethyl)-4,7-dihydro-[1,2,4]triazolo[1,5-a]pyrimidin-6-yl)piperazin-1-yl)-2-oxoethyl)-2-fluorobenzamide]",> 1
9,"CCc1c(N2CCN(C(=O)/C=C/c3cnccc3O)CC2)c(=O)n2nc(C3=CCOCC3)nc2n1CC(=O)Nc1ccc(C(F)(F)F)cc1F [Example 328, (E)-2-(2-(3,6-Dihydro-2H-pyran-4-yl)-5-ethyl-6-(4-(3-(4-hydroxypyridin-3-yl)acryloyl)piperazin-1-yl)-7-oxo-[1,2,4]triazolo[1,5-a]pyrimidin-4(7H)-yl)-N-(2-fluoro-4-(trifluoromethyl)phenyl)acetamide]",0.1 to 1
10,"CCc1c(N2CCN(C(=O)CNC(=O)c3ccccc3F)CC2)c(=O)n2nc(C3=CCOCC3)nc2n1CC(=O)Nc1nc(C)cs1 [Example 159, N-(2-(4-(2-(3,6-Dihydro-2H-pyran-4-yl)-5-ethyl-4-(2-((4-methylthiazol-2-yl)amino)-2-oxoethyl)-7-oxo-4,7-dihydro-[1,2,4]triazolo[1,5-a]pyrimidin-6-yl)piperazin-1-yl)-2-oxoethyl)-2-fluorobenzamide]",0.1 to 1
11,"CCc1c(N2CCN(C(=O)CNC(=O)c3ccccc3F)CC2)c(=O)n2nc(N3CCOCC3)nc2n1CC(=O)Nc1ccc(C(F)(F)F)cc1Cl [Example 245, N-(2-(4-(4-(2-((2-Chloro-4-(trifluoromethyl)phenyl)amino)-2-oxoethyl)-5-ethyl-2-morpholino-7-oxo-4,7-dihydro-[1,2,4]triazolo[1,5-a]pyrimidin-6-yl)piperazin-1-yl)-2-oxoethyl)-2-fluorobenzamide]",< 0.1

# Now from value to compound:
row,IC50 [µM],SMILES
1,> 1,"CCc1c(N2CCN(C(=O)c3cn(C)c(=O)n(C)c3=O)CC2)c(=O)n2nc(C3=CCOCC3)nc2n1CC(=O)Nc1ccc(C(F)(F)F)cc1Cl [Example 51, N-(2-Chloro-4-(trifluoromethyl)phenyl)-2-(2-(3,6-dihydro-2H-pyran-4-yl)-6-(4-(1,3-dimethyl-2,4-dioxo-1,2,3,4-tetrahydropyrimidine-5-carbonyl)piperazin-1-yl)-5-ethyl-7-oxo-[1,2,4]triazolo[1,5-a]pyrimidin-4(7H)-yl)acetamide]"
2,> 1,"CCOC(=O)N1CCN(c2c(CC)n(CC(=O)Nc3ccc(C(F)(F)F)cc3Cl)c3nc(C4=CCOCC4)nn3c2=O)CC1 [Example 40, Ethyl 4-(4-(2-((2-chloro-4-(trifluoromethyl)phenyl)amino)-2-oxoethyl)-2-(3,6-dihydro-2H-pyran-4-yl)-5-ethyl-7-oxo-4,7-dihydro-[1,2,4]triazolo[1,5-a]pyrimidin-6-yl)piperazine-1-carboxylate]"
3,0.1 to 1,"CCNS(=O)(=O)N1CCN(c2c(CC)n(CC(=O)Nc3ccc(C(F)(F)F)cc3Cl)c3nc(C4=CCOCC4)nn3c2=O)CC1 [Example 33, N-(2-Chloro-4-(trifluoromethyl)phenyl)-2-(2-(3,6-dihydro-2H-pyran-4-yl)-5-ethyl-6-(4-(N-ethylsulfamoyl)piperazin-1-yl)-7-oxo-[1,2,4]triazolo[1,5-a]pyrimidin-4(7H)-yl)acetamide]"
4,0.1 to 1,"CCc1c(N2CCN(C(=O)NCC3CC3)CC2)c(=O)n2nc(C3=CCOCC3)nc2n1CC(=O)Nc1ccc(C(F)(F)F)cc1Cl [Example 24, 4-(4-(2-((2-Chloro-4-(trifluoromethyl)phenyl)amino)-2-oxoethyl)-2-(3,6-dihydro-2H-pyran-4-yl)-5-ethyl-7-oxo-4,7-dihydro-[1,2,4]triazolo[1,5-a]pyrimidin-6-yl)-N-(cyclopropylmethyl)piperazine-1-carboxamide]"
5,0.1 to 1,"CCc1c(N2CCN(C(=O)CNC(=O)OC(C)C)CC2)c(=O)n2nc(C3=CCOCC3)nc2n1CC(=O)Nc1ccc(C(F)(F)F)cc1Cl [Example 172, Isopropyl (2-(4-(4-(2-((2-chloro-4-(trifluoromethyl)phenyl)amino)-2-oxoethyl)-2-(3,6-dihydro-2H-pyran-4-yl)-5-ethyl-7-oxo-4,7-dihydro-[1,2,4]triazolo[1,5-a]pyrimidin-6-yl)piperazin-1-yl)-2-oxoethyl)carbamate]"
6,0.1 to 1,"CCc1c(N2CCN(C(=O)C3CC3)CC2)c(=O)n2nc(C3=CCOCC3)nc2n1CC(=O)Nc1ccc(C(F)(F)F)cc1Cl [Example 13, N-(2-Chloro-4-(trifluoromethyl)phenyl)-2-(6-(4-(cyclopropanecarbonyl)piperazin-1-yl)-2-(3,6-dihydro-2H-pyran-4-yl)-5-ethyl-7-oxo-[1,2,4]triazolo[1,5-a]pyrimidin-4(7H)-yl)acetamide]"
7,0.1 to 1,"CCc1c(N2CCN(C(=O)CNC(=O)c3ccc(Cl)cc3)CC2)c(=O)n2nc(C3=CCOCC3)nc2n1CC(=O)Nc1ccc(C(F)(F)F)cc1Cl [Example 164, 4-Chloro-N-(2-(4-(4-(2-((2-chloro-4-(trifluoromethyl)phenyl)amino)-2-oxoethyl)-2-(3,6-dihydro-2H-pyran-4-yl)-5-ethyl-7-oxo-4,7-dihydro-[1,2,4]triazolo[1,5-a]pyrimidin-6-yl)piperazin-1-yl)-2-oxoethyl)benzamide]"
8,> 1,"CCc1c(N2CCN(C(=O)c3cnc4ncnn4c3O)CC2)c(=O)n2nc(C3=CCOCC3)nc2n1CC(=O)Nc1ccc(C(F)(F)F)cc1Cl [Example 52, N-(2-Chloro-4-(trifluoromethyl)phenyl)-2-(2-(3,6-dihydro-2H-pyran-4-yl)-5-ethyl-6-(4-(7-hydroxy-[1,2,4]triazolo[1,5-a]pyrimidine-6-carbonyl)piperazin-1-yl)-7-oxo-[1,2,4]triazolo[1,5-a]pyrimidin-4(7H)-yl)acetamide]"
